Assay results reported in ChEMBL document CHEMBL1201862, “PubChem BioAssay data set” (2004).
Activity calls are given as the source filed them.

Columns and labels:
[1] = biological target: Heat shock protein HSP 90-alpha (Homo sapiens, UniProt P07900); format: functional, organism-based
[2] = biological target: T1, Apoptotic protease-activating factor 1 (Homo sapiens, UniProt O14727); experiment: SAR analysis of small molecule Activators of Apaf-1 in a Fluorescent assay.; format: functional; conditions: read-out: EC50_Mean
T1 sequence (O14727 whole entry): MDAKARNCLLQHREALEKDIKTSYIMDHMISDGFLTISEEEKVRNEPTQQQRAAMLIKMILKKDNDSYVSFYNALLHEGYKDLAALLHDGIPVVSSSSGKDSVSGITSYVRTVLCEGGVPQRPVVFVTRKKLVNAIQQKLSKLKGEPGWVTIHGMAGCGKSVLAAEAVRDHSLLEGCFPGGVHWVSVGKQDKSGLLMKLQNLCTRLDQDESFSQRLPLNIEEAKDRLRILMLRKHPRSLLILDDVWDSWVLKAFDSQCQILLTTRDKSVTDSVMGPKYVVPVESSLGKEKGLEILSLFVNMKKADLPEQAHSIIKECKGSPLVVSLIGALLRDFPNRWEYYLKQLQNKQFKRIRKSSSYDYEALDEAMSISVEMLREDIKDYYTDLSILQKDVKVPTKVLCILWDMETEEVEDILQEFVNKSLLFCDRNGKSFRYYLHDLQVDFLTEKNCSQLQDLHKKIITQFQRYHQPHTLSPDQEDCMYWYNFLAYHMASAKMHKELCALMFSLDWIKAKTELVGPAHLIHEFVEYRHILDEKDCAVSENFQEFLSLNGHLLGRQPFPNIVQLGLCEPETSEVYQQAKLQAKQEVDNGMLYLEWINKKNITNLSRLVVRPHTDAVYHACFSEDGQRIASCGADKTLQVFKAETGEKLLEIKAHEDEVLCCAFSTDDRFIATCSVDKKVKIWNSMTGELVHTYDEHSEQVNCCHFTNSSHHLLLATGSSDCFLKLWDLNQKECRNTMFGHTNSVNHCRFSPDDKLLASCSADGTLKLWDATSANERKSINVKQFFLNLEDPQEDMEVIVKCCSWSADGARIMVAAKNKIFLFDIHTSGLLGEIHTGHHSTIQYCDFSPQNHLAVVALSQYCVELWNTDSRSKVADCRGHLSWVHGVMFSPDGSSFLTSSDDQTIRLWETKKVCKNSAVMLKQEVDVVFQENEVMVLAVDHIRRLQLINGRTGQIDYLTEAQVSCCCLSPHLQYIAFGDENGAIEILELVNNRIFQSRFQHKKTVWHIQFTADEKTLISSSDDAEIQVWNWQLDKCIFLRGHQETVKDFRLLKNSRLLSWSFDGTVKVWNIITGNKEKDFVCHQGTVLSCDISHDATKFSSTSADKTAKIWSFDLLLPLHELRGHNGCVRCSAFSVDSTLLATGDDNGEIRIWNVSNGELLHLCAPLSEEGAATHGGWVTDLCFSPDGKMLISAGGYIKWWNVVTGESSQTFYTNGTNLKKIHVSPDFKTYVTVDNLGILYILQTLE

[3] = growth induction of Burl-1 ts yeast mutant, dose response, counter-screen for SUMOylation pathway inhibitor project, whole organism, S. cerevisiae, luminescence (AID 463199); format: functional
[4] = biological target: T2, High affinity choline transporter 1 (Homo sapiens, UniProt Q9GZV3); experiment: CHT inhibitors, dose response, cell-based, 5-point CRC, membrane potential dye (AID 504840); format: functional
T2 sequence (Q9GZV3 whole entry): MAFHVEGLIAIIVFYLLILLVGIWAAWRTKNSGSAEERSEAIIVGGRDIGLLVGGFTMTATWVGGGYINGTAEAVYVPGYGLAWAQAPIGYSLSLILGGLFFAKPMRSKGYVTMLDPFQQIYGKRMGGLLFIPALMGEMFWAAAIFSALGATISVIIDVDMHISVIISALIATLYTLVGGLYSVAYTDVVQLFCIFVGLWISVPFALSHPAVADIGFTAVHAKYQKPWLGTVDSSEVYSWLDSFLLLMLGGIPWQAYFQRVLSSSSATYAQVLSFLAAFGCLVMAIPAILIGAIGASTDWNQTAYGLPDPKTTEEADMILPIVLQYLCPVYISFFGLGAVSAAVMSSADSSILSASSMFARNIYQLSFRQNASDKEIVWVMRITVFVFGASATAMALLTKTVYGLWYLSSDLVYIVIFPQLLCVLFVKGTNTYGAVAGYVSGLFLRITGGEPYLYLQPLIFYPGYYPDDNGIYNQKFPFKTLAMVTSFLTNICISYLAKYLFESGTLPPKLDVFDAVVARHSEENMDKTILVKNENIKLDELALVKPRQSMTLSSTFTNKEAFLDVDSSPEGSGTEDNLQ

[5] = biological target: T2, High affinity choline transporter 1; experiment: CHT inhibitors, dose response, cell-based, 10-point CRC, membrane potential dye (AID 588401); format: functional;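 further: membrane potential dye fluorescence of choline-evoked depolarization via CHT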
[6] = biological target: T3, Heat shock factor protein 1 (Mus musculus, UniProt P38532); experiment: HSF1 potentiators in luciferase reporter cells, confirmation, cell-based, NIH3T3, luminescence, dose retest (AID 435004); format: functional;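 further: stress induced by proteasome inhibitor MG132 added 30 min after compound; luciferase reporter driven by HSF1 response element in NIH3T3 cells; actives raise luminescence as potentiators of the MG132 stress response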
T3 sequence (P38532 whole entry): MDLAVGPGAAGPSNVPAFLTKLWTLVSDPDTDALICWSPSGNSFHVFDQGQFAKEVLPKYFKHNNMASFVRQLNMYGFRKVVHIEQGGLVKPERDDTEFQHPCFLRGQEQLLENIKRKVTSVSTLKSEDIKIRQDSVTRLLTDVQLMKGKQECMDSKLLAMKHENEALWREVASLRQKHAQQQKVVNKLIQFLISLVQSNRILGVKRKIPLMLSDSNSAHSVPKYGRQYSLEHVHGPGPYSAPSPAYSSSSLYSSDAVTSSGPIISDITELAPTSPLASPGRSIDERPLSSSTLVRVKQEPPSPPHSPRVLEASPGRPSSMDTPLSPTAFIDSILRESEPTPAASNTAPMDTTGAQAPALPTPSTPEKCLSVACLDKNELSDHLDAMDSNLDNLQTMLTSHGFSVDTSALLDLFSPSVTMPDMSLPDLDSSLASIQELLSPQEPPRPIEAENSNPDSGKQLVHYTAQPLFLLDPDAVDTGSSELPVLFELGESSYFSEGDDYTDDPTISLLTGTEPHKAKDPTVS

[7] = nonselective inhibitors of cellular cAMP signaling, dose response, counter-screen for MC4R biased antagonist project, cell-based, TR-FRET cAMP detection (AID 602305); format: functional;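 further: U2OS cells stimulated with forskolin near its EC80 as the cAMP inducer; potency is for inhibition of forskolin-stimulated cAMP signaling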
[8] = A549 cell cytotoxicity, dose response, cytotoxicity control, plate reader, cherry-pick, antagonist series (AID 743412); format: functional, cell-based
Melanocortin receptor 4 [9] = biological target: T4, Melanocortin receptor 4 (Homo sapiens, UniProt P32245); experiment: MC4R antagonist potency on cAMP, dose response, cell-based, TR-FRET, biased antagonists (AID 602298); format: functional;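 further: antagonist potency against agonist-stimulated cAMP production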
T4 sequence (P32245 whole entry): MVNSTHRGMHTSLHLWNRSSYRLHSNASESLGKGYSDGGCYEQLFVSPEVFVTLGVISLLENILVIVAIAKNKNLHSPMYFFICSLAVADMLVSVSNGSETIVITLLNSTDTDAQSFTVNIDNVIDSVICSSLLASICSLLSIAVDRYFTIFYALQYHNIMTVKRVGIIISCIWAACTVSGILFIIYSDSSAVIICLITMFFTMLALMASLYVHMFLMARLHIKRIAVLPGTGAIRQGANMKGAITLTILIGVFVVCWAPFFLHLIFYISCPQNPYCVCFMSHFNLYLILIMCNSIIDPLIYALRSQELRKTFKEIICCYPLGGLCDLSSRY

[10] = LGR2 antagonists, dose response, cell-based, HEK293, CRE-luciferase reporter, cherry pick, set 2 (AID 743343); format: functional;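 further: transfected cells were stimulated with diluted bursicon conditioned medium after compound addition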
Melanocortin receptor 4 [11] = biological target: T4, Melanocortin receptor 4; format: functional, cell-based
[12] = HEK293 cell cytotoxicity, dose response, cytotoxicity control, plate reader, cherry-picked samples (AID 743446); format: functional, cell-based
[13] = MC4R antagonists, dose response, counter-screen for LGR2 antagonist project, cell-based, plate reader, cherry pick (AID 743444); format: functional;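 further: transfected HEK 293 cells stimulated with alpha-MSH peptide; potency of inhibitors of the alpha-MSH evoked signal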
[14] = Luminescence Cell-Based Dose Retest to Confirm Inhibitors of Cancer Stem Cells. [Related pubchem assays (depositor defined):AID2717, AID2721]; format: functional; conditions: Homo sapiens
P388 = experiment: cells; format: functional; conditions: Mus musculus
SN12K1 = experiment: cells; format: functional; conditions: Homo sapiens
P388/ADR = experiment: cells; format: functional; conditions: Mus musculus
Vero [15] = experiment: cells; format: functional, cell-based; conditions: Chlorocebus sabaeus
Vero [16] = experiment: cells; format: functional; conditions: Chlorocebus sabaeus
[17] = cytotoxicity toward NIH3T3 fibroblasts, dose response, counter-screen, cell-based, ATP luminescence, mouse fibroblasts (AID 2010); format: functional;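 further: cells exposed to compound for about 90 hours before reading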
[18] = biological target: Glucose-6-phosphate 1-dehydrogenase (Homo sapiens, UniProt P11413); experiment: human G6PD enzyme inhibitors, dose response, selectivity assay for P. falciparum G6PD inhibitor project, biochemical, fluorescence (AID 504792); format: functional
Sequence of Glucose-6-phosphate 1-dehydrogenase (P11413 whole entry): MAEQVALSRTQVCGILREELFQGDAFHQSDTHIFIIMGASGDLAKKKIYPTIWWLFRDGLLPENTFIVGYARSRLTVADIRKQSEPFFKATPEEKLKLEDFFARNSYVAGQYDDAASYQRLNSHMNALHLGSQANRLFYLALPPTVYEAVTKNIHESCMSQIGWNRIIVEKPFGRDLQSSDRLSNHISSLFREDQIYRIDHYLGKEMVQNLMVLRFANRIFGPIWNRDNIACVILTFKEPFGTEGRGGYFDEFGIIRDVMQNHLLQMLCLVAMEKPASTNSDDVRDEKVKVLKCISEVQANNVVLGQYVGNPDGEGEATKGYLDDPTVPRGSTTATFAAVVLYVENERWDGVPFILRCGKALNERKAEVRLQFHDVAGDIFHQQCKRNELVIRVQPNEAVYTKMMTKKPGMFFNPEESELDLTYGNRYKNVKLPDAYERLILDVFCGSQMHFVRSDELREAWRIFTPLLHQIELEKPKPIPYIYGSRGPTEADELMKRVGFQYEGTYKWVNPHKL

[19] = growth suppression of beta-catenin-knockout colon cells, dose response, cell-based, HCT116, human colon tumor (AID 1045); format: functional;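 further: HCT116 colon tumor cells with beta catenin knocked out; cells exposed to compound for 60 hours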
[20] = biological target: T5, Mitochondrial peptide methionine sulfoxide reductase (Bos taurus, UniProt P54149); experiment: Absorbance-based biochemical high throughput dose response assay for activators of Methionine sulfoxide reductase A (MsrA).; format: functional
T5 sequence (P54149 whole entry): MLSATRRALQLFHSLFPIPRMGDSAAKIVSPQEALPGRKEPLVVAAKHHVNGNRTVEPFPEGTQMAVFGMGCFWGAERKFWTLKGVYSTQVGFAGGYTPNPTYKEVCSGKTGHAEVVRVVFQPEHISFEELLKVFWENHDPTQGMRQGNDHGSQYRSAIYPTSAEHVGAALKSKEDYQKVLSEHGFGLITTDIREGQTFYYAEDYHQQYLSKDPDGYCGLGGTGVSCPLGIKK

[21] = biological target: FAD-linked sulfhydryl oxidase ALR (Homo sapiens, UniProt P55789); experiment: inhibitors of human ALR sulfhydryl oxidase, dose response, biochemical, H2O2 detection, luminescence, cherry-pick (AID 493248)
Sequence of FAD-linked sulfhydryl oxidase ALR (P55789 whole entry): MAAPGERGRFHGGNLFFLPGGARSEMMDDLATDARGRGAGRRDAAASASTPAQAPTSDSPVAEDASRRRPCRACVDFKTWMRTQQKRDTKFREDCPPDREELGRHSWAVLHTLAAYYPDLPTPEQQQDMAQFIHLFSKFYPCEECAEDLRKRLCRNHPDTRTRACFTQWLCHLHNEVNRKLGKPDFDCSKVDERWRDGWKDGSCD

[22] = inhibitors of intracellular T. cruzi replication, confirmation, NIH3T3 host cells, beta-gal luminescence (AID 2044); format: functional, cell-based;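 further: intracellular parasites grown in NIH/3T3 mouse fibroblasts as host cells; luminescent beta-galactosidase reporter signal from transgenic T. cruzi replicating inside host cells; inhibitors lower the luminescence signal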
[23] = growth suppression of PTEN-null colon cells, dose response, cell-based, HCT116 PTEN knockout (AID 1047); format: functional;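 further: HCT116 colon tumor cells with PTEN knocked out; cells exposed to compound for 60 hours before readout; potency for loss of cell viability measured by luminescence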
[24] = biological target: T1, Apoptotic protease-activating factor 1; format: functional
H9c2 = experiment: cells; format: functional, cell-based; conditions: Rattus norvegicus, H9c2, Myocardium
Cytochrome P450 3A4 = Cytochrome P450 3A4 (Homo sapiens, UniProt P08684); conditions: Potency;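 further: confirmatory qHTS run detecting inhibitors and substrates of CYP3A4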
Sequence of Cytochrome P450 3A4 (P08684 whole entry): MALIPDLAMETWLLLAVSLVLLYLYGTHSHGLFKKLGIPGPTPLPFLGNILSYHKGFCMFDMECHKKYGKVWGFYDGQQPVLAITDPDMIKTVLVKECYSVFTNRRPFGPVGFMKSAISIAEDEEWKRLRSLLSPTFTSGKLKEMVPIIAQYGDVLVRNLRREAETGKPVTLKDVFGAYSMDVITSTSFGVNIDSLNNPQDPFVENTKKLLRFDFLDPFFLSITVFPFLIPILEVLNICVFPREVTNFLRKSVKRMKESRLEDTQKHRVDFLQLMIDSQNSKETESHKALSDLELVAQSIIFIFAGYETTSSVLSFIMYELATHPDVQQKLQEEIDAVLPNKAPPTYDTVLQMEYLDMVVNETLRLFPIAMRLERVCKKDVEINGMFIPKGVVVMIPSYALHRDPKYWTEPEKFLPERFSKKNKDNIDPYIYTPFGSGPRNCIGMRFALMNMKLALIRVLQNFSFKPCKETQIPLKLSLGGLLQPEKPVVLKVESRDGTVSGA

[25] = biological target: Low molecular weight phosphotyrosine protein phosphatase (Homo sapiens, UniProt P24666); format: functional; conditions: read-out: IC50_Mean;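 further: Dose-response confirmation assay measuring inhibition of LMPTP enzyme activity by fluorescence intensity read-out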
Sequence of Low molecular weight phosphotyrosine protein phosphatase (P24666 whole entry): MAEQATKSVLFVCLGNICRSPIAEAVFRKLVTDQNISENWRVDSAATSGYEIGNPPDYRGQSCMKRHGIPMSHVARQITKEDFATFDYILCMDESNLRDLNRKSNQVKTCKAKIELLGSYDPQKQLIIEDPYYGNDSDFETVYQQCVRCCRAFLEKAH
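Wherever EC50 Mean is given: caspase-3 cleavage of fluorogenic Rh110 DEVD substrate downstream of apoptosome activation.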

## Cc1ccc(S(=O)(=O)N(C(=O)c2ccncc2)c2ccc(OC(=O)c3ccncc3)cc2)c(C)c1
[1]
  AC50: 1.72 µM (active)

## Cc1cccc(C)c1N1C(=O)CC2(CC(c3ccc(F)cc3)=NO2)C1=O (stereo not given)
[2]
  EC50: > 100 µM (inactive)

## CCCCn1c(N)c(N(CC(C)C)C(=O)CSCC(=O)Nc2cccc(C)c2)c(=O)[nH]c1=O
[3]
  AC50: 54.1 µM (active)

## O=C(O)CC1=C(Nc2ccccc2)C(=O)N(c2ccccc2)C1c1ccc(Cl)cc1 (stereo not given)
[4]
  IC50: 8.1 µM (active)
[5]
  IC50: 2.7 µM (active)
[6]
  EC50: > 260 µM (inactive)

## CCOC(=O)c1cc(C(=O)NC(C)c2ccccc2)c(O)nc1C (stereo not given)
[4]
  IC50: 0.798 µM (active)
[5]
  IC50: 0.34 µM (active)

## CCCCNc1c(-c2cccc(-c3cc(C(C)=O)cs3)c2)nc2ccc(C)cn12
[7]
  IC50: > 64.6 µM (inactive)
[8]
  AC50: > 52 µM (inactive)
Melanocortin receptor 4 [9]
  IC50: > 64.6 µM (inactive)
[10]
  AC50: 11.4 µM (active)
Melanocortin receptor 4 [11]
  EC50: > 89.2 µM (inactive)
[12]
  AC50: > 52 µM (inactive)
[13]
  AC50: 14.5 µM (active)
[14]
  AC50: 4.47 µM (active)

## O=NN(CCCl)C(=O)N[C@H]1CC[C@@H](CC(=O)O)CC1
P388
  GI50: 12.9 µM (inactive)
SN12K1
  GI50: > 100 µM (inactive)
P388/ADR
  GI50: 19.9 µM (inactive)

## COc1cccc(-n2c(CN3CCN(C)CC3)nc3ccc([N+](=O)[O-])cc3c2=O)c1
Vero [15]
  IC50: 14.7 µM (active)
Vero [16]
  CC50: > 25 µM (active)

## CCc1nnc(NC(=O)CSc2nc3c(cc2C#N)CCCC3)s1
[3]
  AC50: 58.2 µM (active)

## C=C1CC2CC[C@@]34C[C@@H]5O[C@@H]6C(O[C@H]7CC[C@H](CC(=O)OC8[C@@H](C)C9OC%10C[C@]%11(C[C@@H]%12O[C@@]%13(C[C@@H](C)[C@@H]%12O%11)C[C@H](C)[C@@H]%11OC%12CC(C(O)CO)OC%12C[C@@H]%11O%13)OC%10CC9O[C@H]8C[C@H]8O[C@@H](CC[C@@H]1O2)C[C@@H](C)C8=C)O[C@@H]7[C@@H]6O3)C5O4 (stereo not given in full)
P388
  GI50: 0.000148 µM (active)
SN12K1
  GI50: 0.000148 µM (active)
P388/ADR
  GI50: 0.00416 µM (active)

## O=c1ccsn1Cc1ccccc1
[17]
  EC50: 37.5 µM (active)
[18]
  IC50: 75.6 µM (inactive)
[19]
  EC50: 12.5 µM (active)
[20]
  EC50: > 104 µM (inactive)
Vero [16]
  CC50: > 25 µM (active)
[21]
  AC50: < 0.005 µM (active)
[22]
  EC50: 1.1 µM (active)
[23]
  EC50: 13 µM (active)

## O=C(NCCN1CCOCC1)Nc1ccc(Cl)cc1Cl
[3]
  AC50: 68.1 µM (active)

## Oc1c(Br)cc(Br)cc1/C=N/c1cccc2ncccc12
[4]
  IC50: 4.19 µM (active)
[5]
  IC50: 4.74 µM (active)
[6]
  EC50: > 260 µM (inactive)
[24]
  IC50: 36 µM (active)
H9c2
  IC50: 13.5 µM (active)

## CC1OC(=O)C(C(C)C)NC(=O)C(C(C)C)OC(=O)C(C(C)C)NC(=O)C(C)OC(=O)C(C(C)C)NC(=O)C(C(C)C)OC(=O)C(C(C)C)NC(=O)C(C)OC(=O)C(C(C)C)NC(=O)C(C(C)C)OC(=O)C(C(C)C)NC1=O (stereo not given)
P388
  GI50: 0.0025 µM (active)
SN12K1
  GI50: 0.00281 µM (active)
P388/ADR
  GI50: 0.00396 µM (active)
Cytochrome P450 3A4
  AC50: 12.6 µM (inconclusive)

## O=C(COC(=O)c1ccc(Br)o1)Nc1nc2c(F)c(F)c(F)cc2s1
[25]
  IC50: 12.7 µM (active)

## COc1cc(NCC(C)C(=O)O)cc(OC)c1OC (stereo not given)
[2]
  EC50: > 100 µM (inactive)
